Where a SMILES comes first, the peptide text is derived from it. [ ]: non-standard residue; d: D form. NMeF = CN[C@@H](Cc1ccccc1)C(=O)O
Key:
Substance-K receptor = molecular target: T1, Substance-K receptor (Homo sapiens, UniProt P21452)
T1 sequence (P21452 whole entry): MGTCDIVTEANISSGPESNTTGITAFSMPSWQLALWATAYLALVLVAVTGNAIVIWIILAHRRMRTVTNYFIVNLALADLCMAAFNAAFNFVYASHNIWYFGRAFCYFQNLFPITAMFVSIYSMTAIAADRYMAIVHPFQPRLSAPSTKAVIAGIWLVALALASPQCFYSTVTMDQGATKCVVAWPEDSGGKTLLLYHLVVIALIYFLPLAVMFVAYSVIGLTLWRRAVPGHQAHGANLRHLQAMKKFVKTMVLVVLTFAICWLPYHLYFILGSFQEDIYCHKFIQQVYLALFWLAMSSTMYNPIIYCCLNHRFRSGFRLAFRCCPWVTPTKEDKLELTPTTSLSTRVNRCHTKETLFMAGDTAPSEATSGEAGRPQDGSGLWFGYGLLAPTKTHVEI

Neuromedin-K receptor = molecular target: T2, Neuromedin-K receptor (Homo sapiens, UniProt P29371)
T2 sequence (P29371 whole entry): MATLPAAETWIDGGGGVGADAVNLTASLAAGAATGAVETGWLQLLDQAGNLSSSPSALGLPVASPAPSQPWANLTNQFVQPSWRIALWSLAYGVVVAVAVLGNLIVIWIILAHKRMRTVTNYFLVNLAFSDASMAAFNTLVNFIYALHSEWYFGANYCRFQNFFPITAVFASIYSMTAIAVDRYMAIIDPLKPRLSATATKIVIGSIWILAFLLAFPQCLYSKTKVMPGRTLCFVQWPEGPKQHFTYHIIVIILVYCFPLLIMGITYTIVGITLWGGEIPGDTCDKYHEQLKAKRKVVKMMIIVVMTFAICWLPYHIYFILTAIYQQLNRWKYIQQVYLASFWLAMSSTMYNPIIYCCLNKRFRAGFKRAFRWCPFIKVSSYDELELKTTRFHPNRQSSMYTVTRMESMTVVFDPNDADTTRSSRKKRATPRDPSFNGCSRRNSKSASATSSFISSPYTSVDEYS

Substance-P receptor = Substance-P receptor (Homo sapiens, UniProt P25103)
Sequence of Substance-P receptor (P25103 whole entry): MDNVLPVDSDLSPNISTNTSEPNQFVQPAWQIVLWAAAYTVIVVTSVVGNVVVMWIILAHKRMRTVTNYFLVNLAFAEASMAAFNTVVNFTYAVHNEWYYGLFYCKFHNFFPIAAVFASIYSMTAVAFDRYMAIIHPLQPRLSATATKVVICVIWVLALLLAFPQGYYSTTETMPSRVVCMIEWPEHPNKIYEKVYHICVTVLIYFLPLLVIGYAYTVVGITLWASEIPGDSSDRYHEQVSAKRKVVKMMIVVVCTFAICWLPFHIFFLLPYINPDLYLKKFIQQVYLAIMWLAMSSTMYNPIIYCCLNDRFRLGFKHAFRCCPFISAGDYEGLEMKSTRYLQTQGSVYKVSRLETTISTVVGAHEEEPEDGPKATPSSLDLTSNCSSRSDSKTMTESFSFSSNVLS

Row | Ki (Substance-K receptor) [nM] | Ki (Neuromedin-K receptor) [nM] | Ki (Substance-P receptor) [nM] | Compound
1 | > 10000 | > 10000 | – | COc1ccccc1CN[C@H]1CCCN[C@H]1c1ccccc1 [(+/-)(2-Methoxy-benzyl)-(2-phenyl-piperidin-3-yl)-amine]
2 | – | 0.31 | > 10000 | CSCC[C@H](NC(=O)[C@H](CC(C)C)NC(=O)CNC(=O)[C@H](Cc1ccccc1)N(C)C(=O)[C@H](Cc1ccccc1)NC(=O)[C@H](Cc1ccccc1)NC(=O)[C@H](CC(=O)O)NC(=O)[C@H](Cc1cnc[nH]1)NC(=O)[C@H](CCSC)NC(=O)[C@@H](N)CC(=O)O)C(N)=O [NKB [MePhe7]] (H-DMHDFF[NMeF]GLM-NH2)
3 | 16.5 | – | – | CSCC[C@H](NC(=O)[C@H](CC(C)C)NC(=O)CNC(=O)[C@@H](NC(=O)[C@H](Cc1ccccc1)NC(=O)[C@H](Cc1ccccc1)NC(=O)[C@H](CC(=O)O)NC(=O)[C@H](Cc1c[nH]cn1)NC(=O)[C@H](CCSC)NC(=O)[C@@H](N)CC(=O)O)C(C)C)C(N)=O [NSC_5311312]
4 | 0.23 | 707 | 454 | CC(=O)NC1(c2ccccc2)CCN(CCC(CN(C)C(=O)c2ccccc2)c2ccc(Cl)c(Cl)c2)CC1 (stereo not drawn) [SR 48968]

From BindingDB's records for PubMed 9190866 (Smithkline Beecham Pharmaceuticals, 1997)
